In experiment [1] the test system is EGFR T790M mutated H1975 lung adenocarcinoma cells. Put plainly: Cell viability assay (MTT), H1975. In kind it is cell-based. The settings on record: H1975 (HER1 T790M), 10 µM, 72 h. As to the method:
1000–3000 cells were plated in 96-well plates (Falcon; Corning, NY) and allowed to adhere for 24–48 h prior to therapeutic introduction. Compounds were added and incubated on cells for 3 days in serum-containing media, followed by 2 h treatment with MTT (Sigma M5655) with the resulting formazan solubilized in DMSO. Absorbance was read at 540 nm by plate reader (uQuant, Bio-Tek Instruments). P-values were calculated from a one-way ANOVA.
Fig. 3 SAH5-EJ1 inhibits growth and prolongs survival in PDX models of lung cancer. a, b Cell viability assays performed in A549 or EGFR T790M mutated H1975 lung adenocarcinoma cells over 3 days comparing treatment with Sapitinib (blue lines) to SAH5-EJ1 (red lines). Solid lines represent 24 h; dashed lines represent 72 h. Data shown represent mean ± percent difference of assays performed in quadruplicate. c Reduction in tumor burden in Erlotinib-resistant lung cancer PDX mouse model TM00784 with various doses of intravenous SAH5-EJ1. Control represents water as a vehicle control. *p < 0.05 (Control vs 1 µg/g); **p < 0.01 (Control vs 1 µg/g and vs 10 µg/g). d Kaplan–Meier curve of lung PDX mouse model treated with control (blue line) or either 1 or 10 µg/g SAH5-EJ1 (green line and red line, respectively). Data shown represent mean. N = 6 for all groups

The test system of experiment [2] is luciferized murine glioma (Ink4a/ARF-/-; hEGFRvIII). Put plainly: Orthotopic EGFRvIII glioblastoma mouse model, survival. In kind it is in vivo, nude mice. The note with it: SAH5-EJ1 10 µg/g IV (N = 4), control peptide N = 6. As to the method:
Patient samples used were provided by the Biobank Core Facility at Barrow Neurological Institute. Samples were de-identified and conformed to the Biobank IRB protocol. Patient-derived cell lines (GB16 and GB71) were established from resected primary GBM tumor tissue. Tissue was processed using the Gentle MACS Dissociator and Tumor Tissue Dissociation kit (Miltenyi Biotec Inc.; Auburn, CA). Animal husbandry was performed according to the guidelines of St. Joseph Hospital and Medical Center and Barrow Neurological Institute under the Institutional Animal Care and Use Committee-approved protocol. Five- to six-week-old CrTac: NCr-Foxn1^nu nude mice (Taconic Biosciences; Hudson, NY) were used for in vivo orthotropic transplant of luciferized murine glioma model (Ink4a/ARF^−/−; hEGFRvIII). For orthotopic transplants, 2 μL of dissociated cells at a density of 100,000 cells/μL were injected in the right striatum, as described previously. In vivo tumor growth was measured by IVIS xenogen bioluminescence imaging (BLI) system after IP injection of 150 mg/kg Luciferin (Gold Biotechnology; St, Louis, MO) every week after 1-month post-surgery. […]
Fig. 2 SAH5-EJ1 enters cells, colocalizes with mitochondria, and survives in vivo, resulting in glioblastoma-derived cell death and glioma mouse model survival. […] H Luminescence distribution throughout organs. […]

Where a SMILES comes first, the peptide text is derived from it. Bridges are numbered along the chain shown (N, C = ends). [ ]: non-standard residue; d: D form. R8 = C=CCCCCCC[C@@](C)(N)C(=O)O; S5 = C=CCCC[C@](C)(N)C(=O)O

Regarding `CC[C@H](C)[C@H](NC(=O)[C@H](Cc1c[nH]cn1)NC(=O)[C@H](CCCNC(=N)N)NC(=O)[C@H](CCCNC(=N)N)NC(=O)[C@H](CCCNC(=N)N)NC(=O)[C@H](CCSC)NC(=O)[C@H](Cc1ccccc1)NC(=O)[C@H](C)NC(=O)[C@H](CCCNC(=N)N)NC(=O)[C@H](C)NC(=O)[C@H](CCC(N)=O)NC(=O)[C@H](CCCNC(=N)N)NC(=O)[C@H](C)NC(=O)[C@H](C)NC(=O)[C@H](C)NC(=O)[C@H](CCCNC(=N)N)NC(=O)[C@H](C)NC(=O)[C@@H](N)Cc1ccc(O)cc1)C(=O)N[C@H](C(=O)N[C@@H](CCCNC(=N)N)C(=O)N[C@@H](CCCCN)C(=O)N[C@@H](CCCNC(=N)N)C(=O)N[C@]1(C)CCCCCCC=CCCC[C@@](C)(C(=O)N[C@@H](CCCNC(=N)N)C(=O)N[C@@H](CCC(=O)O)C(N)=O)NC(=O)[C@H](CCC(N)=O)NC(=O)[C@H](CC(C)C)NC(=O)[C@H](CC(C)C)NC(=O)[C@H](CCCNC(=N)N)NC(=O)[C@H](CCCNC(=N)N)NC(=O)[C@H](CC(C)C)NC1=O)C(C)C` [SAH5-EJ1] (H-YARAAARQARAFMRRRHIVRKR[R8]LRRLLQ[S5]RE-NH2; staple 23-30), in experiment [1], the cell death was 100%. In addition, the “mice alive after 72 days” value in experiment [2] stood at 75%.

Source of the values: publication PMC6582486, “Stapled EGFR peptide reduces inflammatory breast cancer and inhibits additional HER-driven models of cancer” (Journal of Translational Medicine, 2019).
